Data published in patent US8420657B2 (Novartis AG, priority 2008, dated 2013).
pIC50: −log10 of the molar value.

Columns and labels:
[1] = system: JAK2-dependent nuclear translocation of STAT5-GFP in U-2 OS osteosarcoma cells; experiment: STAT5 nuclear translocation assay (Cellomics), rhEpo stimulated U-2 OS STAT5-GFP cells; format: cell-based; conditions: Homo sapiens, U2OS; STAT5 translocation pathway
Procedure, shortened: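 U-2 OS cells stably expressing STAT5a-GFP and EpoR pre-treated with compound (final 10 μM to 0.003 μM, 0.1% DMSO) for 30 min at 37° C., then stimulated 1 h with 5 U/ml rhEpo. Nuclear-cytoplasmic GFP differential quantified by automated imaging (≥1000 cells/well, Hoechst nuclear mask). IC50 from % translocation normalized to untreated and DMSO-stimulated controls.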

GST-JAK2(808-1132) = target: T1, GST-JAK2(808-1132) (Homo sapiens, UniProt O60674); experiment: JAK2 kinase assay (Caliper mobility shift, LabChip 3000); format: biochemical
T1 construct: GST-JAK2(808-1132); purchased Invitrogen (Carlsbad, USA) #4288
Procedure, shortened: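 Eight-point compound series (final 10–0.003 μM) tested on purchased GST-JAK2 kinase domain (808-1132). Peptide FITC-JAK3tide plus ATP reacted 60 min, 30 °C, then quenched with EDTA; turnover from charge-based separation of substrate and product.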

T1 sequence (O60674 808-1132): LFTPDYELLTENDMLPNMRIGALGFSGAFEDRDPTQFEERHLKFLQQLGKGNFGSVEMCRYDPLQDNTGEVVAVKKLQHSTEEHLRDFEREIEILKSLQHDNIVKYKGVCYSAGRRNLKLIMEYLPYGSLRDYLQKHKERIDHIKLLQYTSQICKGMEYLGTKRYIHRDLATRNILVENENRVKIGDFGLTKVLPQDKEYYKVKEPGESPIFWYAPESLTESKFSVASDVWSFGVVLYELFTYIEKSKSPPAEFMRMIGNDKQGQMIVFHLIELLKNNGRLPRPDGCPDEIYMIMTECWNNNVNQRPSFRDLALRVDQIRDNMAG

| SMILES | pIC50 [1] | pIC50 (GST-JAK2(808-1132)) |
| --- | --- | --- |
| C[C@@H]1CN(Cc2cc(Nc3ncc4ccn(-c5cc(F)c(CN6CCOCC6)c(F)c5)c4n3)ccn2)C[C@H](C)N1 [Example 391, [7-(3,5-Difluoro-4-morpholin-4-ylmethyl-phenyl)-7H-pyrrolo[2,3-d]pyrimidin-2-yl]-[2-(cis-3,5-dimethyl-piperazin-1-ylmethyl)-pyridin-4-yl]-amine] | 6.82 | 8.31 |
| Cc1ccc(Nc2ncc3ccn(-c4cc(F)c(CN5CCOCC5)c(F)c4)c3n2)cc1CN1CCOC2(COC2)C1 [Example 358, [7-(3,5-Difluoro-4-morpholin-4-ylmethyl-phenyl)-7H-pyrrolo[2,3-d]pyrimidin-2-yl]-[3-(2,5-dioxa-8-aza-spiro[3,5]non-8-ylmethyl)-4-methyl-phenyl]-amine] | 7.23 | 8.14 |
| CN1CCN(C(=O)c2ccc(Nc3ncc4ccn(-c5cc(F)c(CN6CCOCC6)c(F)c5)c4n3)cn2)CC1 [Example 466, {5-[7-(3,5-Difluoro-4-morpholin-4-ylmethyl-phenyl)-7H-pyrrolo[2,3-d]pyrimidin-2-ylamino]-pyridin-2-yl}-(4-methyl-piperazin-1-yl)-methanone] | 7.25 | 8.10 |
| COC1CCN(Cc2cc(Nc3ncc4ccn(-c5cc(F)c(CN6CCOCC6)c(F)c5)c4n3)ccn2)C1 (racemic) [Example 426, [7-(3,5-Difluoro-4-morpholin-4-ylmethyl-phenyl)-7H-pyrrolo[2,3-d]pyrimidin-2-yl]-[2-(3-methoxy-pyrrolidin-1-ylmethyl)-pyridin-4-yl]-amine] | 7.74 | ≥ 8.52 |
| Cc1ccc(Nc2ncc3ccn(-c4cc(F)c(CN5CCOCC5)c(F)c4)c3n2)cc1C(=O)N1CCN(C)CC1 [Example 451, {5-[7-(3,5-Difluoro-4-morpholin-4-ylmethyl-phenyl)-7H-pyrrolo[2,3-d]pyrimidin-2-ylamino]-2-methyl-phenyl}-(4-methyl-piperazin-1-yl)-methanone] | 7.62 | 8.42 |
| C[C@@H]1CN(c2ccc(Nc3ncc4ccn(-c5ccc(S(=O)(=O)NC(C)(C)C)cc5)c4n3)cn2)C[C@H](C)N1 [Example 351, N-tert-Butyl-4-{2-[6-(cis-3,5-dimethyl-piperazin-1-yl)-pyridin-3-ylamino]-pyrrolo[2,3-d]pyrimidin-7-yl}-benzenesulfonamide] | 8.89 | 8.37 |
| Fc1cc(-n2ccc3cnc(Nc4ccnc(CN5CCN(C6CC6)CC5)c4)nc32)cc(F)c1CN1CCOCC1 [Example 407, [2-(4-Cyclopropyl-piperazin-1-ylmethyl)-pyridin-4-yl]-[7-(3,5-difluoro-4-morpholin-4-ylmethyl-phenyl)-7H-pyrrolo[2,3-d]pyrimidin-2-yl]-amine] | 6.52 | ≥ 8.52 |
| O=C(c1cc(Nc2ncc3ccn(-c4cc(F)c(CN5CCOCC5)c(F)c4)c3n2)ccn1)N1CCNCC1 [Example 390, {4-[7-(3,5-Difluoro-4-morpholin-4-ylmethyl-phenyl)-7H-pyrrolo[2,3-d]pyrimidin-2-ylamino]-pyridin-2-yl}-piperazin-1-yl-methanone] | 6.98 | 7.82 |
| Fc1cc(-n2ccc3cnc(Nc4ccc(OCC5CCOCC5)nc4)nc32)cc(F)c1CN1CCOCC1 [Example 517, [7-(3,5-Difluoro-4-morpholin-4-ylmethyl-phenyl)-7H-pyrrolo[2,3-d]pyrimidin-2-yl]-[6-(tetrahydro-pyran-4-ylmethoxy)-pyridin-3-yl]-amine] | 7.16 | ≥ 8.52 |
| Cc1ccc(Nc2ncc3ccn(-c4cc(F)c(CN5CCOCC5)c(F)c4)c3n2)cc1C(=O)N1C[C@@H](C)N[C@@H](C)C1 [Example 452, {5-[7-(3,5-Difluoro-4-morpholin-4-ylmethyl-phenyl)-7H-pyrrolo[2,3-d]pyrimidin-2-ylamino]-2-methyl-phenyl}-(cis-3,5-dimethyl-piperazin-1-yl)-methanone] | 7.10 | 8.21 |
| CC(C)S(=O)(=O)Nc1ccc(-n2ccc3cnc(Nc4ccc(N5C[C@@H](C)N[C@@H](C)C5)nc4)nc32)cc1 [Example 375, Propane-2-sulfonic acid (4-{2-[6-(cis-3,5-dimethyl-piperazin-1-yl)-pyridin-3-ylamino]-pyrrolo[2,3-d]pyrimidin-7-yl}-phenyl)-amide] | 8.11 | 8.19 |
| Cc1cc(Nc2ncc3ccn(-c4cc(F)c(CN5CCOCC5)c(F)c4)c3n2)cnc1N1CCNC(C)(C)C1 [Example 488, [7-(3,5-Difluoro-4-morpholin-4-ylmethyl-phenyl)-7H-pyrrolo[2,3-d]pyrimidin-2-yl]-[6-(dimethyl-piperazin-1-yl)-5-methyl-pyridin-3-yl]-amine] | 7.39 | ≥ 8.52 |
| COC1CCN(Cc2cc(Nc3ncc4ccn(-c5cc(F)c(CN6CCOCC6)c(F)c5)c4n3)ccc2C)C1 (racemic) [Example 417, [7-(3,5-Difluoro-4-morpholin-4-ylmethyl-phenyl)-7H-pyrrolo[2,3-d]pyrimidin-2-l]-[3-(3-methoxy-pyrrolidin-1-ylmethyl)-4-methyl-phenyl]-amine] | 8.30 | ≥ 8.52 |
| Cc1ccc(Nc2ncc3ccn(-c4cc(F)c(CN5CCOCC5)c(F)c4)c3n2)cc1CN1CCN(CCN(C)C)C(=O)C1 [Example 410, 4-{5-[7-(3,5-Difluoro-4-morpholin-4-ylmethyl-phenyl)-7H-pyrrolo[2,3-d]pyrimidin-2-ylamino]-2-methyl-benzyl}-1-(2-dimethylamino-ethyl)-piperazin-2-one] | 8.08 | ≥ 8.52 |
| OC1CN(Cc2ccc(Nc3ncc4ccn(-c5cc(F)c(CN6CCOCC6)c(F)c5)c4n3)cc2)C1 [Example 479, 1-{4-[7-(3,5-Difluoro-4-morpholin-4-ylmethyl-phenyl)-7H-pyrrolo[2,3-d]pyrimidin-2-ylamino]-benzyl}-azetidin-3-ol] | 7.82 | 8.46 |
| O=C1CNCCN1Cc1cc(Nc2ncc3ccn(-c4cc(F)c(CN5CCOCC5)c(F)c4)c3n2)ccn1 [Example 409, 1-{4-[7-(3,5-Difluoro-4-morpholin-4-ylmethyl-phenyl)-7H-pyrrolo[2,3-d]pyrimidin-2-ylamino]-pyridin-2-ylmethyl}-piperazin-2-one] | 7.09 | ≥ 8.52 |
| CN1CCN(c2cc(Nc3ncc4ccn(-c5cc(F)c(CN6CCOCC6)c(F)c5)c4n3)ccn2)CC1=O [Example 504, 4-{4-[7-(3,5-Difluoro-4-morpholin-4-ylmethyl-phenyl)-7H-pyrrolo[2,3-d]pyrimidin-2-ylamino]-pyridin-2-yl}-1-methyl-piperazin-2-one] | 7.09 | ≥ 8.52 |
| Cc1ccc(Nc2ncc3ccn(-c4cc(F)c(CN5CCOCC5)c(F)c4)c3n2)cc1CN1CCN(C=O)CC1 [Example 370, 4-{5-[7-(3,5-Difluoro-4-morpholin-4-ylmethyl-phenyl)-7H-pyrrolo[2,3-d]pyrimidin-2-ylamino]-2-methyl-benzyl}-piperazine-1-carbaldehyde] | 7.50 | ≥ 8.52 |
| Cc1cc(Nc2ncc3ccn(-c4cc(F)c(CN5CCS(=O)(=O)CC5)c(F)c4)c3n2)cnc1N1C[C@@H](C)N[C@@H](C)C1 [Example 429] | 7.39 | ≥ 8.52 |
| Cc1ccc(Nc2ncc3ccn(-c4cc(F)c(CN5CCOCC5)c(F)c4)c3n2)cc1Cn1ccnc1 [Example 412, [7-(3,5-Difluoro-4-morpholin-4-ylmethyl-phenyl)-7H-pyrrolo[2,3-d]pyrimidin-2-yl]-(3-imidazol-1-ylmethyl-4-methyl-phenyl)-amine] | 7.58 | ≥ 8.52 |
| Fc1cc(-n2ccc3cnc(Nc4cccc([C@H]5COCCN5)c4)nc32)cc(F)c1CN1CCOCC1 [Example 507, [7-(3,5-Difluoro-4-morpholin-4-ylmethyl-phenyl)-7H-pyrrolo[2,3-d]pyrimidin-2-yl]-((S)-3-morpholin-3-yl-phenyl)-amine] | 9.70 | > 8.52 |
| CN1CCN(c2ccc(Nc3ncc4ccn(-c5cc(F)c(CN6CCOCC6)c(F)c5)c4n3)cn2)C(=O)C1 [Example 478, 1-{5-[7-(3,5-Difluoro-4-morpholin-4-ylmethyl-phenyl)-7H-pyrrolo[2,3-d]pyrimidin-2-ylamino]-pyridin-2-yl}-4-methyl-piperazin-2-one] | 7.29 | 8.26 |
| Cc1ccc(Nc2ncc3ccn(-c4ccc(C(=O)N5CCOCC5)c(F)c4)c3n2)cc1CN1CCNC(C)(C)C1 [Example 386, (4-{2-[3-(3,3-Dimethyl-piperazin-1-ylmethyl)-4-methyl-phenylamino]-pyrrolo[2,3-d]pyrimidin-7-yl}-2-fluoro-phenyl)-morpholin-4-yl-methanone] | 7.00 | 6.96 |
| Fc1cc(-n2ccc3cnc(Nc4ccnc(CN5CCC(F)(F)C5)c4)nc32)cc(F)c1CN1CCOCC1 [Example 402, [7-(3,5-Difluoro-4-morpholin-4-ylmethyl-phenyl)-7H-pyrrolo[2,3-d]pyrimidin-2-yl]-[2-(3,3-difluoro-pyrrolidin-1-ylmethyl)-pyridin-4-yl]-amine] | 5.86 | ≥ 8.52 |
| CN(C)CCN1CCN(Cc2cc(Nc3ncc4ccn(-c5cc(F)c(CN6CCOCC6)c(F)c5)c4n3)ccn2)CC1 [Example 396, [7-(3,5-Difluoro-4-morpholin-4-ylmethyl-phenyl)-7H-pyrrolo[2,3-d]pyrimidin-2-yl]-{2-[4-(2-dimethylamino-ethyl)-piperazin-1-ylmethyl]-pyridin-4-yl}-amine] | 6.83 | ≥ 8.52 |
